Assay: Lithium isotope levels in post-mortem neocortex (BA7), quadrupole inductively coupled plasma mass spectroscopy
Source text: Lithium (Li) isotope levels have been measured in post-mortem neocortex (BA7) of human subjects having bipolar disorder, without having bipolar disorder receiving lithium treatment at time of death. Neurologically intact individuals and subjects with schizophrenia were included as controls.
Bipolar brains show a 4% shift away from 7-Li within the total lithium content. Similar fractionation is not seen in schizophrenia or neurologically intact controls.

[7Li] [7-Li]
shift away from 7-Li within the total lithium content (bipolar brains, FIG. 2, deviation from environmental distribution): 4%
fractionation (shift away from 7-Li) in brain (schizophrenia or neurologically intact controls): not seen

[6Li] [Li-6]
brain penetration (relative to Li-7, stated as applicants' discovery): better able to penetrate the brain

Source: US20150342985A1, “COMPOSITIONS COMPRISING LITHIUM” (priority 2012, published 2015)
